Measurements reported in US10752640B2, “Compounds active towards bromodomains” (NUEVOLUTION A/S, priority 2014, dated 2020).

Target: BRD4 protein (Homo sapiens, UniProt O60885)
Experiment: FRET assay, half maximal inhibitory concentration (IC50)
Type: binding
Conditions: BRD4 protein 50 nM, Biotin-H4KAc4 peptide 12.5 nM; List of Classification
Experimental: The compounds were biologically evaluated by determining the half maximal inhibitory concentration (IC50) by FRET assay. The IC50 is a measure of the effectiveness of a substance in inhibiting a specific biological or biochemical function.
For IC50 determinations, dose-response curves were generated, using a top concentration of 50 μM compound in 12.5% DMSO, followed by 10-fold dilutions in 12.5% DMSO. The composition of the reaction buffer was 50 mM HEPES, pH 7.5; 100 mM NaCl, 0.05% CHAPS.
The reaction was run in a final volume of 25 μl. The BRD4 protein (16.5 μl) was added to wells of 384w white Optiplates (Perkin Elmer) (50 nM final concentration) and 1 μl of compound dilution of DMSO control. Incubation time was 30 minutes at room temperature. In the next step, 2.5 μl Biotin-H4KAc4 peptide (Millipore 13-379) was added to the wells (final concentration was 12.5 nM), and the plates were incubated for 30 minutes at room temperature. Detection was performed by addition of 5 μl of a mix of mAb GST-XL665 (Cisbio 61GSTXLB) (10 nM final concentration) and Streptavidin Cryptate (Cisbio 610SAKLB) (2.4 nM final conc.) in reaction buffer with 0.4M KF and 0.05% BSA). The plates were incubated for one hour prior to reading on an Envision reader (Perkin Elmer)
Data was analyzed using GraphPad Prism, and IC50 data was obtained using non-linear regression curve fit using log(inhibitor) vs response (variable slope). All compounds were considered active although classified (according to the half maximal inhibitory concentration (IC50) by FRET assay) as follows: […]

IC50 [nM] | SMILES
< 200 | Cc1cc(O)nc2ccc(NC(=O)c3cc(CN4CCOCC4)ccc3N3CCC(O)C3)cc12 (centres unmarked) [Compound-31, N-(2-hydroxy-4-methyl-6-quinolyl)-2-(3-hydroxypyrrolidin-1-yl)-5-(morpholinomethyl)benzamide]
< 200 | Cc1cc(O)nc2ccc(NC(=O)c3cc(CN4CCOCC4)ccc3N3CCCC3CN(C)C)cc12 (centres unmarked) [Compound-32, 2-(2-((dimethylamino)methyl)pyrrolidin-1-yl)-N-(2-hydroxy-4-methylquinolin-6-yl)-5-(morpholinomethyl) benzamide]
1000 to 10000 | Cc1cc(O)nc2ccc(NC(=O)c3nc(-c4nnn[nH]4)ccc3N3CCCC3)cc12 [Compound-33, N-(2-hydroxy-4-methylquinolin-6-yl)-3-(pyrrolidin-1-yl)-6-(1H-tetrazol-5-yl) picolinamide]
500 to 1000 | Cc1cc(O)nc2ccc(NC(=O)c3cc(CN4CCOCC4)ccc3N3CCCC3=O)cc12 [Compound-34, N-(2-hydroxy-4-methylquinolin-6-yl)-5-(morpholinomethyl)-2-(2-oxopyrrolidin-1-yl) benzamide]
500 to 1000 | Cc1cc(O)nc2ccc(NC(=O)c3nc(C#N)ccc3N3CCCC3)cc12 [Compound-35, 6-Cyano-N-(2-hydroxy-4-methylquinolin-6-yl)-3-(pyrrolidin-1-yl)picolinamide]
1000 to 10000 | Cc1cc(O)nc2ccc(NC(=O)c3nc(CN)ccc3N3CCCC3)cc12 [Compound-36, 6-(aminomethyl)-N-(2-hydroxy-4-methylqunolin-6-yl)-3-(pyrrolidin-1-yl)picolinamide]
1000 to 10000 | Cc1cc(O)nc2ccc(NC(=O)c3nc(CN(C)C)ccc3N3CCCC3)cc12 [Compound-37]
< 200 | CC(=O)c1ccc(N2CCCC2)c(C(=O)Nc2ccc3nc(O)cc(C)c3c2)n1 [Compound-38, 6-acetyl-N-(2-hydroxy-4-methylquinolin-6-yl)-3(pyrrolidin-1-yl)picolinamide]
500 to 1000 | Cc1cc(O)nc2ccc(NC(=O)c3nc(C(C)O)ccc3N3CCCC3)cc12 (centres unmarked) [Compound-39]
200 to 500 | Cc1cc(O)nc2ccc(NC(=O)c3nc(C(N)=O)ccc3N3CCCC3)cc12 [Compound-40, N2-(2-hydroxy-4-methylquinolin-6-yl)-3-(pyrrolidin-1-yl)pyridine-2,6-dicarboxamide]
< 200 | Cc1cc(O)nc2ccc(NC(=O)c3cc(C#N)ncc3N3CCCC3)cc12 [Compound-41, 2-Cyano-N-(2-hydroxy-4-methylquinolin-6-yl)-5-(pyrrolidin-1-yl) isonicotinamide]
< 200 | CC(=O)c1cc(C(=O)Nc2ccc3nc(O)cc(C)c3c2)c(N2CCCC2)cn1 [Compound-42, 2-acetyl-N-(2-hydroxy-4-methylquinolin-6-yl)-5 (pyrrolidin-1-yl)isonicotinamide]
< 200 | Cc1cc(O)nc2ccc(NC(=O)c3cc(C(C)O)ccc3N3CCCC3)cc12 (centres unmarked) [Compound-46, N-(2-hydroxy-4-methylquinolin-6-yl)-5-(1-hydroxyethyl)-2-(pyrrolidin-1-yl) benzamide]
< 200 | COC(C)c1ccc(N2CCCC2)c(C(=O)Nc2ccc3nc(O)cc(C)c3c2)c1 (centres unmarked) [Compound-47, N-(2-hydroxy-4-methylquinolin-6-yl)-5-(1-methoxyethyl)-2-(pyrrolidin-1-yl) benzamide]
200 to 500 | COCc1ccc(N2CCCC2CN(C)C)c(C(=O)Nc2ccc3nc(O)cc(C)c3c2)c1 (centres unmarked) [Compound-48, 2-(2-((dimethylamino)methyl)pyrrolidin-1-yl)-N-(2-hydroxy-4-methylquinolin-6-yl)-5-(methoxymethyl)benzamide]
< 200 | Cc1cc(O)nc2ccc(NC(=O)c3cc(COC(C)C)ccc3N3CCCC3)cc12 [Compound-50, N-(2-hydroxy-4-methylquinolin-6-yl)-5-(isopropoxymethyl)-2-(pyrrolidin-1-yl) benzamide]
< 200 | Cc1cc(O)nc2ccc(NC(=O)c3cc(OC(F)(F)F)ccc3N3CCCC3CN(C)C)cc12 (centres unmarked) [Compound-51, 2-(2-((dimethylamino)methyl)pyrrolidin-1-yl)-N-(2-hydroxy-4-methylquinolin-6-yl)-5-(trifluoromethoxy) benzamide]
